Our source for the viability, T/C and IC50 values is PubChem BioAssay AID1963838 (Molecular Pharmacology Branch, DTP, NCI, 2024).

For this assay, the system named is 855422-203-R-J1-PDC complex spheroid viability. As to the kind of experiment: Anticancer human tumor 855422-203-R-J1-PDC patient-derived bladder carcinoma cell line growth inhibition [POLQ]. The following applies: for viability, T/C: stronger effect = lower value. The protocol:
Multicellular complex tumor spheroid response to Polymerase (POL) inhibitors (novobiocin, ART-558, RP6685) in combination with a variety of drugs and investigational agents in selected tumor cell lines
The POL inhibitors (novobiocin, ART-558, and RP6685) were evaluated both individually and in combination with standard of care and investigational anticancer small molecules within a complex spheroid model of solid tumors. . Complex spheroids include a stromal component modeled by human endothelial cells (HUVEC) and fibroblasts modeled by human mesenchymal stem cells (MSCs). The concentration ranges selected for each drug and investigational agent were based upon clinically achievable concentrations if the clinical Cmax of the agent was known.
Compounds. The drugs and investigational agents: novobiocin (NSC847541), ART-558 (NSC835418), RP-6685 (NSC848927), peposertib (NSC802822), ceralasertib (NSC780249), elimusertib (NSC800525), camonsertib (NSC841442), AZD-1390 (NSC803789), olaparib (NSC753686), talazoparib (NSC767125), rucaparib (NSC756644), sotorasib (NSC818433), MRTX-1133 (NSC836407), SN-38 (NSC673596), topotecan (NSC609699), epotoside (NSC141540), doxorubicin (NSC123127), gemcitabine (NSC613327), 5-fluorouracil (NSC19893), paclitaxel (NSC125973), vemurafenib (NSC761431), MSA-2 (NSC828583), SN-011 (NSC837082), adavosertib (NSC754352), prexasertib (NSC758257), carboplatin (NSC241240) and oxaliplatin (NSC266046), were obtained from the National Cancer Institute (NCI) Developmental Therapeutics Program Chemical Repository (21). The FDA-approved anticancer drug set is available from the Developmental Therapeutics Program at https://dtp.cancer.gov/organization/dscb/obtaining/. […] The stock solutions were prepared in dimethyl sulfoxide (DMSO, Sigma-Aldrich, St. Louis, MO, cat. D2650), except for the platinum compounds which were prepared in saline (Quality Biological, Gaithersburg, MD, cat. 114-055-101), at 800-fold the tested concentration and stored at -70 degrees C prior to their use. All drugs and investigational agents were tested over a range starting from a high concentration at or near the clinical Cmax and decreasing in half-log increments. If the clinical Cmax for an agent had not been determined, the highest concentration tested was 10 microM, except for SN-38, which was tested at a high concentration of 1 microM.
Cell Culture. All cells were maintained in an incubator at 37 degrees C and 5% CO2 with 95% humidity. The PDC lines were cultured according to standard operating procedures established by the NCI PDMR (https://pdmr.cancer.gov). Table 3 of the manuscript, lists the cell lines along with the number of the three cell types plated to form the mct-spheroids and media for tumor cell growth. After thawing, all PDC lines, except 997537-175-T-J1-PDC and 415267-285-R-J2-PDC, were cultured in Matrigel-coated flasks prepared with a working solution of 1X Ham's F-12 nutrient mix, without supplementation (Thermo Fisher Scientific, cat. 11765054), 100 U/mL penicillin-streptomycin (Thermo Fisher Scientific, cat. 15140122), and 2.5% Matrigel (Corning Inc., Corning, NY, cat. 354248) for the first three passages. The two PDC lines 997537-175-T-J1-PDC and 415267-285-R-J2-PDC were cultured on uncoated flasks. The 857933-349-R-J2-PDC line was cultured in 6C/Colon 1B media containing advanced DMEM/F-12 (Thermo Fisher Scientific, cat. 12634028), 10 mM HEPES (Thermo Fisher Scientific, cat. 15630080), 1X GlutaMAX supplement (Thermo Fisher Scientific, cat. 35050061), 0.1 mg/mL primocin (InvivoGen, San Diego, CA, cat. ant-pm-2), 10% defined fetal bovine serum, heat inactivated (HyClone Laboratories Inc., Logan, UT, cat. SH30070.03HI), 50% L-WRN conditioned media (ATCC, cat. CRL-3276), 1.25 mM N-Acetyl-L-cysteine (Sigma-Aldrich, cat. A9165), 10 mM nicotinamide (Sigma-Aldrich, cat. N0636), 1X B-27 supplement (Thermo Fisher Scientific, cat. 17504044), 1X N-2 supplement (Thermo Fisher Scientific, cat. […]

Values joined by “and” are separate entries in the source; they are usually repeats but may differ in a detail not shown here. Equal entries are not always repeated. Some results are limits rather than exact numbers.
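Note: spheroids exposed to compounds for seven days before readout.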

Take `C=CCn1c(=O)c2cnc(Nc3ccc(N4CCN(C)CC4)cc3)nc2n1-c1cccc(C(C)(C)O)n1`: the viability, T/C (compound 0.00316 µM) was 100% and 104% and 107%; the viability, T/C (compound 0.01 µM) is 100% and 120% and 111%; the viability, T/C (compound 0.0316 µM) is 106% and 108% and 122%; the viability, T/C (compound 0.1 µM) is 90.9% and 98.5% and 98%; the viability, T/C (compound 0.316 µM) is 118% and 116% and 99.9%; the viability, T/C (compound 1 µM) is 94.8% and 187% and 136%. The IC50 (curve of compound) is over 1000 nM.
As to `CC(=O)O[C@H]1C(=O)[C@@]2(C)[C@H]([C@H](OC(=O)c3ccccc3)[C@]3(O)C[C@H](OC(=O)[C@H](O)[C@@H](NC(=O)c4ccccc4)c4ccccc4)C(C)=C1C3(C)C)[C@]1(OC(C)=O)CO[C@@H]1C[C@@H]2O`, the viability, T/C is 13.3% and 11.4% and 6.22% (compound 0.00949 µM); 9.21% and 8.32% and 5.81% (compound 0.03 µM); 10.3% and 7.91% and 5.5% (compound 0.0949 µM); 7.66% and 7.33% and 5.13% (compound 0.3 µM); 6.14% and 7.78% and 6.34% (compound 0.949 µM); 7.69% and 7.6% and 7.01% (compound 3 µM). Further, the IC50 (curve of compound) was under 9.49 nM.
Regarding `CC(C)n1c(=O)n(C)c2cnc3cc(F)c(-c4ccc(OCCCN5CCCCC5)nc4)cc3c21`, the viability, T/C runs as follows: (compound 0.0316 µM) 100% and 106% and 98.1%; (compound 0.1 µM) 96.9% and 119% and 91.5%; (compound 0.316 µM) 103% and 111% and 98.1%; (compound 1 µM) 97.5% and 101% and 93%; (compound 3.16 µM) 83.8% and 95.1% and 86.4%; (compound 10 µM) 56.6% and 97.9% and 74.8%. Moreover, the IC50 (curve of compound) is over 10000 nM.
Regarding `CC1COCCN1c1cc(-c2ccnn2C)c2ccnc(-c3ccn[nH]3)c2n1` (centres undefined), the viability, T/C was 99.3% and 108% and 116% (compound 0.0316 µM); 70.3% and 81.8% and 110% (compound 0.1 µM); 23.4% and 22.9% and 30.8% (compound 0.316 µM); 11.2% and 11% and 16.2% (compound 1 µM); 8.42% and 8.52% and 10.7% (compound 3.16 µM); 6.55% and 7.74% and 10.3% (compound 10 µM). Besides, where the note is “curve of compound”, the IC50 was 165 nM and 186 nM and 239 nM.
As for `CC1COCCN1c1cc(C2(S(C)(=N)=O)CC2)nc(-c2ccnc3[nH]ccc23)n1` (centres undefined), the viability, T/C is, setting by setting: (compound 0.0316 µM) 97.2% and 103% and 97.7%; (compound 0.1 µM) 101% (2×) and 94.1%; (compound 0.316 µM) 109% and 115% and 116%; (compound 1 µM) 97.7% and 154% and 117%; (compound 3.16 µM) 37.8% and 46% and 35.8%; (compound 10 µM) 9.87% and 13% and 14.6%. The IC50 (curve of compound) is 2500 nM and 2960 nM and 2520 nM.
As to `CCCS(=O)(=O)Nc1ccc(F)c(C(=O)c2c[nH]c3ncc(-c4ccc(Cl)cc4)cc23)c1F`, the viability, T/C by setting is: (compound 0.0316 µM) 106% and 96.3% and 94.9%; (compound 0.1 µM) 97.9% and 102% and 107%; (compound 0.316 µM) 117% and 97.8% and 105%; (compound 1 µM) 96.7% and 100% and 109%; (compound 3.16 µM) 113% (2×) and 108%; (compound 10 µM) 7.16% and 6.83% and 1.07%. For the same molecule, the IC50 (curve of compound) is 6080 nM and 5930 nM and 5810 nM.
With `CC[C@@]1(O)C(=O)OCc2c1cc1n(c2=O)Cc2cc3c(CN(C)C)c(O)ccc3nc2-1`, the viability, T/C is 113% and 104% and 102% (compound 0.000316 µM); 102% (2×) and 109% (compound 0.001 µM); 105% and 98.4% and 122% (compound 0.00316 µM); 90.4% and 90% and 93.3% (compound 0.01 µM); 54.6% and 99.2% and 57.2% (compound 0.0316 µM); 10.1% and 17.6% and 11.1% (compound 0.1 µM). Further, for the setting “curve of compound”, the IC50 was 35.9 nM and 63.1 nM and 37.1 nM.
For `CCc1c2c(nc3ccc(O)cc13)-c1cc3c(c(=O)n1C2)COC(=O)[C@]3(O)CC`, the viability, T/C is 51.3% and 111% and 38.4% (compound 0.00316 µM); 12.8% and 30.6% and 13.8% (compound 0.01 µM); 6.94% and 13.9% and 6.52% (compound 0.0316 µM); 5.24% and 8.86% and 5.52% (compound 0.1 µM); 3.34% and 4.22% (2×) (compound 0.316 µM); 1.24% and 3.11% and 2.06% (compound 1 µM). Moreover, the IC50 (curve of compound) was 3.29 nM and 7.7 nM and < 3.16 nM.
In the case of `CNCc1ccc(-c2[nH]c3cc(F)cc4c3c2CCNC4=O)cc1`, the viability, T/C is 98.8% and 101% and 112% (compound 0.0316 µM); 98.1% and 100% and 101% (compound 0.1 µM); 114% and 108% and 99.2% (compound 0.316 µM); 115% and 103% and 99.8% (compound 1 µM); 105% and 88.8% and 114% (compound 3.16 µM); 114% and 137% and 126% (compound 10 µM). In addition, the IC50 (curve of compound) is over 10000 nM.
As for `COC1C(OC(N)=O)C(O)C(Oc2ccc3c(O)c(NC(=O)c4ccc(O)c(CC=C(C)C)c4)c(=O)oc3c2C)OC1(C)C` (centres undefined), the viability, T/C was 105% [middle of 13 runs] (compound 0.0316 µM); 108% [middle of 13 runs] (compound 0.1 µM); 111% [middle of 13 runs] (compound 0.316 µM); 106% [middle of 13 runs] (compound 1 µM); 104% [middle of 13 runs] (compound 3.16 µM). Further, the IC50 (compound alone, run of 01/08/2024) is over 10000 nM.

For orientation: viability, T/C means the result in the treated group divided by that in the control group, in per cent. One may read the IC50 as the concentration that gives 50% inhibition.
